Laboratory results taken from ChEMBL document CHEMBL1201862, “PubChem BioAssay data set” (2004).
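Grown in 96-well plates, cells were treated for 48 hours with each compound at five concentrations. Insufficient inhibition: endpoint recorded as highest concentration tested. GI50: concentration for 50% inhibition of growth.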 Activity calls are given as the source filed them. Cut-off read from the data, not from the text of the source: active = GI50 up to about 1.1 µM and inactive = higher.

Experiments:
Assay in all cases: NCI-60 cell line screen, 48 h
EKVX = system: EKVX
K562 = system: K562
LOX IMVI = system: LOX IMVI
DMS-114 = system: DMS-114
IGROV-1 = system: IGROV-1
HT-29 = system: HT-29
KM-20L2 = system: KM-20L2
HOP-62 = system: HOP-62
UACC-62 = system: UACC-62
HOP-18 = system: HOP-18
SNB-75 = system: SNB-75
UO-31 = system: UO-31
MOLT-4 = system: MOLT-4
HOP-92 = system: HOP-92
M14 = system: M14
SF-268 = system: SF-268
CCRF-CEM = system: CCRF-CEM
SF-295 = system: SF-295
NCI-H226 = system: NCI-H226
UACC-257 = system: UACC-257
NCI-H23 = system: NCI-H23
M19-MEL = system: M19-MEL
DLD-1 = system: DLD-1
OVCAR-4 = system: OVCAR-4
SK-MEL-28 = system: SK-MEL-28
SW-620 = system: SW-620
U-251 = system: U-251
SF-539 = system: SF-539
SK-MEL-5 = system: SK-MEL-5
SNB-78 = system: SNB-78
A498 = system: A498
OVCAR-3 = system: OVCAR-3
SN12C = system: SN12C
NCI-H522 = system: NCI-H522
786-0 = system: 786-0
KM12 = system: KM12
COLO 205 = system: COLO 205
SNB-19 = system: SNB-19
ACHN = system: ACHN
Malme-3M = system: Malme-3M
TK-10 = system: TK-10
HCT-116 = system: HCT-116
OVCAR-8 = system: OVCAR-8
SR = system: SR
CAKI-1 = system: CAKI-1
HL-60 = system: HL-60
A549 = system: A549
LXFL 529 = system: LXFL 529
HCC 2998 = system: HCC 2998
RXF 393 = system: RXF 393
SK-OV-3 = system: SK-OV-3
NCI-H460 = system: NCI-H460
XF498 = system: XF498
OVCAR-5 = system: OVCAR-5
DMS-273 = system: DMS-273
RXF 631 = system: RXF 631

Measured: GI50

CC(Oc1ccc2c(-c3ccccc3)cc(=O)oc2c1)C(=O)O (centres undefined)
inactive: EKVX > 100 µM | K562 > 100 µM | LOX IMVI > 100 µM | DMS-114 > 100 µM | IGROV-1 > 100 µM | HT-29 > 100 µM | KM-20L2 > 100 µM | HOP-62 > 100 µM | UACC-62 > 100 µM | HOP-18 > 100 µM | SNB-75 > 100 µM | UO-31 > 100 µM | MOLT-4 > 100 µM | HOP-92 > 100 µM | M14 > 100 µM | SF-268 > 100 µM | CCRF-CEM > 100 µM | SF-295 > 100 µM | NCI-H226 > 100 µM | UACC-257 > 100 µM | NCI-H23 > 100 µM | M19-MEL > 100 µM | DLD-1 > 100 µM | OVCAR-4 > 100 µM | SK-MEL-28 > 100 µM | SW-620 > 100 µM | U-251 > 100 µM | SF-539 > 100 µM | SK-MEL-5 > 100 µM | SNB-78 > 100 µM | A498 > 100 µM | OVCAR-3 > 100 µM | SN12C > 100 µM | NCI-H522 > 100 µM | 786-0 > 100 µM | KM12 > 100 µM | COLO 205 > 100 µM | SNB-19 > 100 µM | ACHN > 100 µM | Malme-3M > 100 µM | TK-10 > 100 µM | HCT-116 > 100 µM | OVCAR-8 > 100 µM | SR > 100 µM | CAKI-1 > 100 µM | HL-60 > 100 µM | A549 > 100 µM | LXFL 529 > 100 µM | HCC 2998 > 100 µM | RXF 393 > 100 µM | SK-OV-3 > 100 µM | NCI-H460 > 100 µM | XF498 > 100 µM

CC(=O)O[C@H]1CCC(C)=CCC[C@@]2(C)C(CC[C@@H]2[C@@H](C)/C=C/C(C)C)c2ccc(cc2C(=O)O)C1 (some centres undefined)
inactive: EKVX 11 µM | K562 3.21 µM | DMS-114 4.49 µM | IGROV-1 2.96 µM | HT-29 3.93 µM | KM-20L2 3.67 µM | HOP-62 2.45 µM | UACC-62 1.95 µM | UO-31 2.03 µM | MOLT-4 1.92 µM | HOP-92 2.84 µM | M14 5.02 µM | CCRF-CEM 3.13 µM | SF-295 2.9 µM | UACC-257 4.59 µM | NCI-H23 2.63 µM | M19-MEL 4.18 µM | OVCAR-5 3.28 µM | SK-MEL-28 5.05 µM | U-251 2.54 µM | SNB-78 3.33 µM | A498 6.35 µM | NCI-H522 2.49 µM | KM12 2.21 µM | SNB-19 3.04 µM | ACHN 3.6 µM | TK-10 3.45 µM | HCT-116 2.94 µM | OVCAR-8 4.06 µM | SR 2.59 µM | DMS-273 3.84 µM | HL-60 1.73 µM | RXF 393 3.11 µM | SK-OV-3 3.6 µM | NCI-H460 3.12 µM | RXF 631 7.4 µM
